Measurements from PubChem BioAssay AID1963421 (Molecular Pharmacology Branch, DTP, NCI, 2024).
“And” between values parts separate entries of the source, which are not always exact repeats. Identical values can stand only once. Each block holds one molecule with its values, some of them ahead of it.

System: 519858-162-T-J1-PDC complex spheroid growth, % test/control
Assay: Anticancer human tumor 519858-162-T-J1-PDC patient-derived colon adenocarcinoma cell line growth inhibition [Asc]
Conditions: for viability, T/C: stronger effect = lower value
Procedure, shortened: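 Complex solid-tumor spheroids incorporating human endothelial and mesenchymal stem cells received single agents or combinations over half-log dilution ranges anchored to clinical Cmax.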
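Also: seven day drug exposure begun three days after spheroid seeding.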
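For viability, T/C in this document: 100% = DMSO vehicle wells and lower values mean less viable spheroid.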

Compound: C#Cc1c(F)ccc2cc(O)cc(-c3ncc4c(N5CC6CCC(C5)N6)nc(OCC56CCCN5CC(F)C6)nc4c3F)c12 (stereo unspecified) + CCN1C(C(=O)NC23CCC(C(=O)O)(CC2)CC3)C(c2cccc(Cl)c2F)C2(C(=O)Nc3cc(Cl)ccc32)C12CCCCC2
IC50 (curve of first compound, second compound 0.00949 µM): > 10 µM
IC50 (curve of first compound, second compound 0.03 µM): > 10 µM
IC50 (curve of first compound, second compound 0.0949 µM): > 10 µM
IC50 (curve of first compound, second compound 0.3 µM): > 10 µM
IC50 (curve of first compound, second compound 0.949 µM): > 10 µM
IC50 (curve of first compound, second compound 3 µM): > 10 µM
viability, T/C (second compound 0.00949 µM, first compound 0.0316 µM): 75.2%
viability, T/C (second compound 0.00949 µM, first compound 0.1 µM): 104%
viability, T/C (second compound 0.00949 µM, first compound 0.316 µM): 84.3%
viability, T/C (second compound 0.00949 µM, first compound 1 µM): 66.3%
viability, T/C (second compound 0.00949 µM, first compound 3.16 µM): 82.3%
viability, T/C (second compound 0.00949 µM, first compound 10 µM): 64%
viability, T/C (second compound 0.03 µM, first compound 0.0316 µM): 67.5%
viability, T/C (second compound 0.03 µM, first compound 0.1 µM): 84.6%
viability, T/C (second compound 0.03 µM, first compound 0.316 µM): 96.4%
viability, T/C (second compound 0.03 µM, first compound 1 µM): 92.4%
viability, T/C (second compound 0.03 µM, first compound 3.16 µM): 94.3%
viability, T/C (second compound 0.03 µM, first compound 10 µM): 88.4%
viability, T/C (second compound 0.0949 µM, first compound 0.0316 µM): 89.6%
viability, T/C (second compound 0.0949 µM, first compound 0.1 µM): 99.2%
viability, T/C (second compound 0.0949 µM, first compound 0.316 µM): 88.4%
viability, T/C (second compound 0.0949 µM, first compound 1 µM): 64.1%
viability, T/C (second compound 0.0949 µM, first compound 3.16 µM): 81.4%
viability, T/C (second compound 0.0949 µM, first compound 10 µM): 69%
viability, T/C (second compound 0.3 µM, first compound 0.0316 µM): 59.4%
viability, T/C (second compound 0.3 µM, first compound 0.1 µM): 95.5%
viability, T/C (second compound 0.3 µM, first compound 0.316 µM): 78.4%
viability, T/C (second compound 0.3 µM, first compound 1 µM): 71.2%
viability, T/C (second compound 0.3 µM, first compound 3.16 µM): 74.2%
viability, T/C (second compound 0.3 µM, first compound 10 µM): 102%
viability, T/C (second compound 0.949 µM, first compound 0.0316 µM): 53.3%
viability, T/C (second compound 0.949 µM, first compound 0.1 µM): 116%
viability, T/C (second compound 0.949 µM, first compound 0.316 µM): 81.3%
viability, T/C (second compound 0.949 µM, first compound 1 µM): 58.5%
viability, T/C (second compound 0.949 µM, first compound 3.16 µM): 86.6%
viability, T/C (second compound 0.949 µM, first compound 10 µM): 93.6%
viability, T/C (second compound 3 µM, first compound 0.0316 µM): 64.2%
viability, T/C (second compound 3 µM, first compound 0.1 µM): 60.6%
viability, T/C (second compound 3 µM, first compound 0.316 µM): 63.3%
viability, T/C (second compound 3 µM, first compound 1 µM): 77.7%
viability, T/C (second compound 3 µM, first compound 3.16 µM): 93%
viability, T/C (second compound 3 µM, first compound 10 µM): 66.7%

Compound: COc1c(OCCCN2CCOCC2)ccc2c3n(c(=NC(=O)c4cnc(N)nc4)nc12)CCN3
viability, T/C (compound 0.00316 µM): 88.7% and 89.2% and 87.3%
viability, T/C (compound 0.01 µM): 106% and 82.6% and 84%
viability, T/C (compound 0.0316 µM): 91.1% and 79.6% and 45.8%
viability, T/C (compound 0.1 µM): 62.9% and 81.2% and 48.9%
viability, T/C (compound 0.316 µM): 50.7% and 65.9% and 55.2%
viability, T/C (compound 1 µM): 29.3% and 51.5% and 45.5%

More lines, main results first:

IC50 (curve of first compound, second compound 0.0316 µM): > 0.1 µM
IC50 (curve of first compound, second compound 0.1 µM): > 0.1 µM
IC50 (curve of first compound, second compound 0.316 µM): > 0.1 µM
IC50 (curve of first compound, second compound 1 µM): > 0.1 µM
IC50 (curve of first compound, second compound 3.16 µM): > 0.1 µM
IC50 (curve of first compound, second compound 10 µM): > 0.1 µM
Compound: NC1CCC(NC2CC2c2ccccc2)CC1 (stereo unspecified) + Cc1c(S(C)(=O)=O)c(-c2cc(F)cc(N3CCN(c4ccc(NS(=O)(=O)c5ccc(NC(CCN6CCC(C(=O)OCCCP(=O)(O)O)CC6)CSc6ccccc6)c(S(=O)(=O)C(F)(F)F)c5)cc4)CC3)c2)c(-c2ccc(Cl)cc2)n1C(C)C
viability, T/C (second compound 0.0316 µM, first compound 0.000316 µM): 106%
viability, T/C (second compound 0.0316 µM, first compound 0.001 µM): 128%
viability, T/C (second compound 0.0316 µM, first compound 0.00316 µM): 116%
viability, T/C (second compound 0.0316 µM, first compound 0.01 µM): 137%
viability, T/C (second compound 0.0316 µM, first compound 0.0316 µM): 115%
viability, T/C (second compound 0.0316 µM, first compound 0.1 µM): 70.6%
viability, T/C (second compound 0.1 µM, first compound 0.000316 µM): 134%
viability, T/C (second compound 0.1 µM, first compound 0.001 µM): 122%
viability, T/C (second compound 0.1 µM, first compound 0.00316 µM): 92.7%
viability, T/C (second compound 0.1 µM, first compound 0.01 µM): 94.8%
viability, T/C (second compound 0.1 µM, first compound 0.0316 µM): 79.9%
viability, T/C (second compound 0.1 µM, first compound 0.1 µM): 98.3%
viability, T/C (second compound 0.316 µM, first compound 0.000316 µM): 65.3%
viability, T/C (second compound 0.316 µM, first compound 0.001 µM): 109%
viability, T/C (second compound 0.316 µM, first compound 0.00316 µM): 142%
viability, T/C (second compound 0.316 µM, first compound 0.01 µM): 94%
viability, T/C (second compound 0.316 µM, first compound 0.0316 µM): 85.5%
viability, T/C (second compound 0.316 µM, first compound 0.1 µM): 107%
viability, T/C (second compound 1 µM, first compound 0.000316 µM): 96.3%
viability, T/C (second compound 1 µM, first compound 0.001 µM): 74.7%
viability, T/C (second compound 1 µM, first compound 0.00316 µM): 99.4%
viability, T/C (second compound 1 µM, first compound 0.01 µM): 60.3%
viability, T/C (second compound 1 µM, first compound 0.0316 µM): 134%
viability, T/C (second compound 1 µM, first compound 0.1 µM): 77.9%
viability, T/C (second compound 3.16 µM, first compound 0.000316 µM): 72.6%
viability, T/C (second compound 3.16 µM, first compound 0.001 µM): 113%
viability, T/C (second compound 3.16 µM, first compound 0.00316 µM): 97.3%
viability, T/C (second compound 3.16 µM, first compound 0.01 µM): 83.6%
viability, T/C (second compound 3.16 µM, first compound 0.0316 µM): 115%
viability, T/C (second compound 3.16 µM, first compound 0.1 µM): 116%
viability, T/C (second compound 10 µM, first compound 0.000316 µM): 69.7%
viability, T/C (second compound 10 µM, first compound 0.001 µM): 79%
viability, T/C (second compound 10 µM, first compound 0.00316 µM): 60.6%
viability, T/C (second compound 10 µM, first compound 0.01 µM): 77.1%
viability, T/C (second compound 10 µM, first compound 0.0316 µM): 55.4%
viability, T/C (second compound 10 µM, first compound 0.1 µM): 69.9%

IC50 (curve of compound): > 0.1 µM
Compound: NC1CCC(NC2CC2c2ccccc2)CC1 (stereo unspecified)
viability, T/C (compound 0.000316 µM): 104% and 97.4% and 118%
viability, T/C (compound 0.001 µM): 95.6% and 118% and 95.5%
viability, T/C (compound 0.00316 µM): 86.1% and 99% and 95.9%
viability, T/C (compound 0.01 µM): 99.9% and 127% and 86.2%
viability, T/C (compound 0.0316 µM): 129% and 85.6% and 94.6%
viability, T/C (compound 0.1 µM): 113% and 111% and 102%

IC50 (curve of compound): > 10 µM
Compound: O=C(c1cc(Cc2n[nH]c(=O)c3ccccc23)ccc1F)N1CCN(C(=O)C2CC2)CC1
viability, T/C (compound 0.0316 µM): 80.7% and 96.9% and 79.1%
viability, T/C (compound 0.1 µM): 93.5% and 79.1% and 92.7%
viability, T/C (compound 0.316 µM): 80.5% and 81.3% and 77.4%
viability, T/C (compound 1 µM): 96.3% and 112% and 117%
viability, T/C (compound 3.16 µM): 97.3% and 89.7% and 106%
viability, T/C (compound 10 µM): 94.3% and 70.3% and 86.1%

IC50 (compound alone, run of 11/07/2022): > 3 µM
IC50 (curve of compound): > 3 µM
Compound: CCN1C(C(=O)NC23CCC(C(=O)O)(CC2)CC3)C(c2cccc(Cl)c2F)C2(C(=O)Nc3cc(Cl)ccc32)C12CCCCC2 (stereo unspecified)
